According to PMC11500415, “Chemical inhibition of stomatal differentiation by perturbation of the master-regulatory bHLH heterodimer via an ACT-Like domain” (Nature Communications, 2024):
Where “and” joins values, the source holds several entries; their conditions need not be identical. Equal values may be shown once. Entries after “also recorded” stand apart in the source; their conditions may differ.

Tested on: Arabidopsis WT seedlings on solid MS media
Assay: Stomatal development bioassay on solid media
Assay type: in vivo
Settings: for MI (%) meristemoid index / SI (%) stomatal index: solid culture, cotyledon abaxial epidermis, individual seedlings
Protocol: Arabidopsis accession Columbia (Col-0) was used as wild-type. […] Their genotype and transcript reduction were confirmed. The presence of transgenes/mutant alleles were confirmed by genotyping. For liquid culture with Stomidazolone (AYSJ929, compound 3), the analogs (AYSJ1059 (compound 5) and AYSJ1061 (compound 6)), degraded compound lzx103 (compound 4), and SIM3* (compound 7), all compounds were dissolved in dimethyl sulfoxide (DMSO, Molecular biology grade, Fujifilm Wako, Japan 046-21981), Col-0 seeds were sown in 96-well plates (TL5003; True Line) containing 95 μL of 1/2 MS media containing 0.5% sucrose with rotary shaking at 140 rpm under continuous light at 22 °C. Five μL of compounds were dissolved in DMSO at 10 mM and diluted with liquid 1/2 MS media to 1 mM and added on 1-day-old seedlings (final concentration, 50 μM). Seedlings were incubated for 8 days, and at day 9 seedling abaxial cotyledons were observed through confocal microscopy. For liquid culture of scrm-D_S343 and scrm-D_S423, 1/2 MS liquid media without sucrose was used. For the solid culture, 0, 20, 50 or 100 μM Stomidazolone were solidified with low-melting agarose (5805S, PrimeGelTM Agarose LMT 1-20 K, TAKARA Bio). Briefly, 1/2 MS salt, 0.5% sucrose, and 0.8% low melting agarose were mixed in water and autoclaved. After cooling the medium at around 30 °C, Stomidazolone (500x, dissolved in DMSO) was added and poured into 90 mm petri dishes (Asnol Petri Dish JP φ90 x 15 mm, 3-1491-01, AS ONE). Col-0 seeds were sown on Stomidazolone-containing 1/2 MS agarose media and grown under continuous light for 9 days.
For quantitative analysis of the abaxial leaf epidermis, confocal images were taken on the days after germination as indicated in the Figure legends. Preparation of images was done as described previously[32],[70]. For counting epidermal cell types, stomatal density, stomatal precursor cells (meristemoids), total stomata-lineage cells (stomata and meristemoids) were calculated by counting cell types in an area of 0.4 mm^2 (0.63 mm × 0.63 mm) and plotted as per mm^2. A series of Z-stack confocal images was obtained to obtain images covering the epidermis and capturing GFP/YFP signal from the reporter lines. The area and the number of epidermal cells were quantified by using FIJI-ImageJ. Statistical analyses were performed using R ver. 4.0.2. Sample sizes (n) are indicated and defined in each legend. For the multiple sample comparison, 1-way ANOVA was performed followed by a post hoc Tukey HSD test. For the two-sample comparison, Student’s T-test was performed. Graphs were generated using R ggplot2 package. For all boxplots, each box represents IQR (interquartile range), in which top, middle line, and bottom indicating 75, 50, and 25 percentiles, respectively, and the bar representing maximum to minimal values. Each magenta dot represents jittered individual data point. The datapoints that go beyond the bar are outliers, which are indicated as black dots. If the data point is greater than Q3 + 1.5*IQR (above the third quartile is greater than 1.5 times of the interquartile range) or less than Q1 − 1.5*IQR, that data point is classified as outlier. The color of Boxplot graph was based on ColorBrewer.org. The value of n, the number of each experiment or samples, the means of error bars, and how statistical significance was defined are indicated in a relevant figure legend. See Source Data for quantitative data underlying each figure.

O=C1C(c2ccccc2)=NC(NS(=O)(=O)c2ccccc2)(c2ccccc2)N1S(=O)(=O)c1ccccc1 (stereo not drawn) [Stomidazolone]
MI (%) meristemoid index (20 uM): 2.39% and 0% and 2.612% and 2.336% and 2.778% and 1.339% and 0.4219% and 0.7905% | SI (%) stomatal index (20 uM): 22.3108% and 29.661% and 27.2388% and 24.7664% and 32.1429% and 24.5536% and 35.443% and 19.7628% | MI (%) meristemoid index (50 uM): 0% and 2.954% and 0.8658% and 1.852% and 0.4878% and 0.5208% and 2.991% | SI (%) stomatal index (50 uM): 27.027% and 21.097% and 20.3463% and 25.9259% and 27.9412% and 25.8537% and 27.6042% and 20.9402% | MI (%) meristemoid index (100 uM): 2.4% and 0.7812% and 3.364% and 2.326% and 0.4717% and 8.069% and 4.2623% and 3.509% | SI (%) stomatal index (100 uM): 20.4% and 25% and 12.844% and 16.2791% and 24.0566% and 14.9856% and 17.377% and 15.4386% | effect on seedling growth (solid media, 100 μM (Supplementary Fig. 2d)): subtle growth retardation | effect on stomatal differentiation (in words) (solid media, 20, 50, 100 μM (Supplementary Fig. 2a-c)): inhibited stomatal differentiation in a dose-dependent manner | effect on seedling morphology / growth (solid media, 20 and 50 μM (Supplementary Fig. 2d)): does not impact; also recorded: does not affect growth
